Conditions: in water

Compound | solubility (mole fraction) (283.15 K) | solubility (mole fraction) (288.15 K) | solubility (mole fraction) (293.15 K) | solubility (mole fraction) (298.15 K) | solubility (mole fraction) (303.15 K) | solubility (mole fraction) (308.15 K) | solubility (mole fraction) (313.15 K) | solubility (mole fraction) (318.15 K) | solubility (mole fraction) (323.15 K) | solubility (mole fraction) (328.15 K) | solubility (mole fraction) (333.15 K)
O=S(=O)([O-])c1ccc2cc(S(=O)(=O)[O-])ccc2c1.[Na+].[Na+] | 0.00323 | 0.00343 | 0.00366 | 0.00402 | 0.00437 | 0.00478 | 0.00523 | 0.00563 | 0.00611 | 0.00657 | 0.0072
O=S(=O)([O-])c1ccc2ccc(S(=O)(=O)[O-])cc2c1.[Na+].[Na+] | 0.0128 | 0.014 | 0.0159 | 0.0189 | 0.0224 | 0.0268 | 0.0323 | 0.0383 | 0.0473 | 0.0584 | 0.075

Reference: BigSolDB 2.1
